In test [1] the test system is UNC-49B homomers containing the M1 mutations. Put plainly: Desensitization in oocytes. In kind it is cell-based, C. elegans. To be noted: oocytes expressing UNC-49B homomers containing the M1 mutations.
The target of test [2] is M1-M2-linker chimera (Caenorhabditis elegans, UniProt G5ECD3+G5EE10). In kind it is cell-based, C. elegans. To be noted: 5 μM PS, 100 μM GABA. Here is the method: (§1) Electrophysiology: Plasmids containing wild-type and mutagenized GABAA receptor subunits were linearized and transcribed in vitro using T3 RNA polymerase (mMessage mMachine T3 kit, Ambion, Austin Tex.). UNC-49B mRNA was injected into Xenopus laevis oocytes at 0.5 μg/μl either alone, or in a mixture with 0.5 μg/μl UNC-49C. […] The injection volume ranged between 27.6 nl to 50.6 nl. […] Cells were voltage clamped at −60 mV. All recordings were performed at room temperature.
(§2) The strategy represents a deletion of UNC-49C material from the carboxy to amino terminal end of the transmembrane portion of the subunit, which is then replaced with UNC-49B sequences.

Test [3] has as its target T1, Y(M258L/S264A) (Caenorhabditis elegans, UniProt G5ECD3, I265S/I267V/I270L/M258L/N259Q/N305R/S264A/T269V/V261F/V273I).
T1 sequence (G5ECD3 23-506 M258L/N259Q/V261F/S264A/I265S/I267V/T269V/I270L/V273I/N305R): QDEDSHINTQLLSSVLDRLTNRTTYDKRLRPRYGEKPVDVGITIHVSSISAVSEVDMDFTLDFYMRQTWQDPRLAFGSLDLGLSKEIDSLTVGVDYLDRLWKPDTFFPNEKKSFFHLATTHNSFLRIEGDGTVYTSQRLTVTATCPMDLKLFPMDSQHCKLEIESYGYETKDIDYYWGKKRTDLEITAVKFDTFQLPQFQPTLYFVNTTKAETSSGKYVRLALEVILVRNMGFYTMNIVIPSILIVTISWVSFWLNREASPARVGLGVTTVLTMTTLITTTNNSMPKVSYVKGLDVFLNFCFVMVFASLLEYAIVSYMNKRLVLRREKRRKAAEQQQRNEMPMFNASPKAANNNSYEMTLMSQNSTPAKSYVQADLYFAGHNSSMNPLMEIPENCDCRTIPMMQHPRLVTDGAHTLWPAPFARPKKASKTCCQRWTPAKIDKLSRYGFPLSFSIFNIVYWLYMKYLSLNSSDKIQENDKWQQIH
In kind it is cell-based, C. elegans. To be noted: M258L/S264A mutant; median of 1000 bootstrap trials. As to the method: as §1
(§3) Error bars in the figures are standard error of the mean. All drugs were obtained from Sigma (St. Louis). […] Picrotoxin was prepared as a 100 mM stock in DMSO.
(§4) Important residues in the X segment were tested by substituting UNC-49C residues into the Y chimera. […] These divergent X segment residues were tested by mutating them from UNC-49B to UNC-49C amino acids in the Y chimera background.

In test [4] the target is T2, Y(M258L) (Caenorhabditis elegans, UniProt G5ECD3, I265S/I267V/I270L/M258L/N259Q/N305R/T269V/V261F/V273I).
T2 sequence (G5ECD3 23-506 M258L/N259Q/V261F/I265S/I267V/T269V/I270L/V273I/N305R): T1 sequence (G5ECD3 23-506 M258L/N259Q/V261F/S264A/I265S/I267V/T269V/I270L/V273I/N305R)
Type of test: cell-based, C. elegans. To be noted: M258L mutant; median of 1000 bootstrap trials. Here is the method:
as §1, §3, §4

The subject of test [5] is QF-R. Type of test: cell-based, C. elegans. Here is the method:
as §1
(§5) The conserved residues were tested in the UNC-49C M1 domain in a similar way. […] To test the importance of these conserved residues, they were substituted into an UNC-49B subunit with the linker mutation N305R to create the ‘QF-R’ subunit (FIG. 3c).

Test [6] deals with QF-R (Caenorhabditis elegans, UniProt G5ECD3, N259Q/N305R/V261F). In kind it is cell-based, C. elegans. To be noted: QF-R; at EC50 GABA. As to the method:
as §1, §5

The target in test [7] is XZ chimera (Caenorhabditis elegans, UniProt G5ECD3, A281S/E280D/I262F/L277I/M258L/N259Q/N305R/S264A/S282A/T257F/V261F). Type of test: cell-based, C. elegans. To be noted: at EC50 GABA. As to the method:
as §1

The target of test [8] is X(T269V) (Caenorhabditis elegans, UniProt G5ECD3, I262F/M258L/N259Q/N305R/S264A/T257F/T269V/V261F). In kind it is cell-based, C. elegans. To be noted: at EC50 GABA. Here is the method: as §1
Test [9] addresses Y(T257F) (Caenorhabditis elegans, UniProt G5ECD3, I265S/I267V/I270L/N259Q/N305R/T257F/T269V/V261F/V273I). In kind it is cell-based, C. elegans. Here is the method: as §1, §4
Test [10] concerns the target Y(T257F/M258L/S264A) (Caenorhabditis elegans, UniProt G5ECD3, I265S/I267V/I270L/M258L/N259Q/N305R/S264A/T257F/T269V/V261F/V273I). In kind it is cell-based, C. elegans. To be noted: at EC50 GABA. Here is the method:
as §1, §4

In test [11] the target is Y(S264A) (Caenorhabditis elegans, UniProt G5ECD3, I265S/I267V/I270L/N259Q/N305R/S264A/T269V/V261F/V273I). In kind it is cell-based, C. elegans. To be noted: at EC50 GABA. As to the method:
as §1, §4

For test [12], the target named is Y(T257F/S264A) (Caenorhabditis elegans, UniProt G5ECD3, I265S/I267V/I270L/N259Q/N305R/S264A/T257F/T269V/V261F/V273I). Type of test: cell-based, C. elegans. Here is the method:
as §1, §4

In test [13] the target is Y(T257F/M258L) (Caenorhabditis elegans, UniProt G5ECD3, I265S/I267V/I270L/M258L/N259Q/N305R/T257F/T269V/V261F/V273I). Type of test: cell-based, C. elegans. To be noted: at EC50 GABA. Here is the method: as §1, §4
Test [14] has as its target UNC-49B/C heteromer (Caenorhabditis elegans, UniProt G5ECD3+G5EE10). In kind it is cell-based. To be noted: UNC-49B/C heteromer. As to the method:
as §1

Test [15] has as its target M1-M2 chimera (Caenorhabditis elegans, UniProt G5ECD3+G5EE10). Briefly: Xenopus oocyte two electrode voltage-clamp, GABA-evoked currents. Type of test: cell-based, C. elegans. To be noted: 5 μM PS, 1000 μM GABA, versus M1-M2-linker chimera. Here is the method: as §1, §2

UNC-49B/C heteromer, sequence (G5EE10 entry or part of it, one chain of several): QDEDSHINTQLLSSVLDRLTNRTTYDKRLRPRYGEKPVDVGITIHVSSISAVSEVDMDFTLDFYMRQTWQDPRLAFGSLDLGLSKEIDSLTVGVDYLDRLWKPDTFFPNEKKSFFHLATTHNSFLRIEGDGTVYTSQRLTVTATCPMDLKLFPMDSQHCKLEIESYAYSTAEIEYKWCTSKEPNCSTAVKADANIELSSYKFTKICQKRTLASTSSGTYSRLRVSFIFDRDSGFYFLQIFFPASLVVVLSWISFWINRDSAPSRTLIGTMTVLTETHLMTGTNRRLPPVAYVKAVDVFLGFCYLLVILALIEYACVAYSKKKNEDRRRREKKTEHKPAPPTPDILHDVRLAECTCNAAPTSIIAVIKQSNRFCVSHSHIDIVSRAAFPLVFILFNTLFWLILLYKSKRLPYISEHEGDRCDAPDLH
M1-M2-linker chimera, sequence (G5EE10 256-315, stated change not applied, one chain of several): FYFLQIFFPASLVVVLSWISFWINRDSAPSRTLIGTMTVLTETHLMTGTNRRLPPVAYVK
M1-M2 chimera, sequence (G5EE10 256-304, change not shown, one chain of several): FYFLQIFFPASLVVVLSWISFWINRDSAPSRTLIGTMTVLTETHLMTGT

In the case of pregnenolone sulfate [PS], in [1], the “effect of PS on desensitization” value was “accelerated desensitization”. For the same substance, the PS sensitivity result in [2] is “equally sensitive to 5 μM PS as the TM chimera”; in test [15], “significantly less PS sensitive”. Moreover, the entries for the “A, amplitude of normalized current above 1 (biphasic fit)” value in test [3] and in [4] were 1.0 and 1.56, respectively. For the same substance, the entries for the “nE, slope coefficient for the enhancement” value in test [3] and in [4] were 1.3 and 1.0, respectively. For the same substance, the “nI, slope coefficient for the inhibition” value was 1 .9 in [3] and 1.8 in test [4]. Also, the “fold more sensitive to PS than N305R” value in [5] (QF-R versus N305R) was 2.1 fold. In addition, the “fold less sensitive to PS than the double chimera” value in [5] (QF-R versus double chimera) is reported as 6.7 fold. Also, the “PS Slope coefficient” value in [6] is reported as 1.5 ± 0.5 (n = 6); in test [7], 1.1 ± .06; in test [8], 1.2 ± 0.1; in test [9] (Y(T257F), at EC50 GABA), 1.3 ± 0.06; in test [10], 1.44 ± 0.1; in [11] it was 5.3 ± 1.8. For the same substance, the “PS Slope coefficient” value in test [12] (Y(T257F/S264A), at EC50 GABA) is given as 0.9 ± 0.08; in test [13] it was 2.3 ± 0.2; in test [14] (at EC50 GABA), 0.9 ± 0.1 (n = 4). The “reduction of the holding current by PS alone, relative to EC50 GABA-evoked current” value in test [9] (T257F point mutant, 100 μM PS) is reported as 6-20%; in test [12] (T257F/S264A point mutant, 100 μM PS), 6-20%. Besides, in test [14] (100 μM PS, EC50 GABA), the “inhibition of GABA-evoked current” value is 95%.

The values above are taken from patent US8183001B2 (priority 2006, dated 2012).
